In patent publication US6506580B1, “Splice variants for human 5-HT4 serotonin receptor and their applications, in particular for screening” (Institut National de la Sante et de la Recherche Medicale …, priority 1997, dated 2003):

Experiments:
[1] = target: T1, receptor 5-HT4(b) (Homo sapiens, UniProt Q13639); assay: [3H]GR113808 radioligand binding, membranes of transiently transfected COS-7 cells; details: 5-HT4(b), COS-7 membranes, 30 minutes at 25° C.; read-out: Kd, saturation analysis
T1 construct: The entire coding region of the cDNAs of 5-HT4(a), 5-HT4(b), 5-HT4(c) and 5-T4(d) was subcloned; expressed in transfected cells; host or cells: COS-7 cells, transient, pRC/CMV vector; cDNA amplified from human brain and ileum RNA
Method: (§1) The entire coding region of the cDNAs of 5-HT4(a), 5-HT4(b), 5-HT4(c) and 5-T4(d) was subcloned into a mammalian expression vector pRC/CMV (Invitrogen, Carlsbad, Calif.). The transfections were carried out using polyethyleneimine (PEI) as described in Boussif et al. (1995). The cells were transfected using a mixture of DNA and of PEI in a ratio of 20 μmol of PEI/mg of DNA in 0.9% NaCl. For the radioligand binding assays, the COS-7 cells were seeded into culture flasks of 1.5×10^4 mm^2 one day before the transfection, at a density of 1×10^7 cells/flask, incubated for six hours with plasmid DNA (150 μg/flask) and collected 48 hours after transfection. For the measurement of cAMP formation, the COS-7 cells were seeded onto twelve-well plates one day before transfection, at a density of 5×10^5 cells/well, incubated for six hours with plasmid DNA (4 to 8 μg/well according to the experiments) and assayed 24 hours after the transfection. The cells transfected with the receptor 5-HT4 cDNA constructs were compared with the “blank”-transfected cells, which were exposed to the unmodified pRC/CMV plasmid.
(§2) Each flask of cells intended for the radioligand binding assays was washed twice with a phosphate buffer (PBS). The cells were then scraped, collected and centrifuged at 300 g for five minutes. The pellet was resuspended in 2.5 ml of ice-cold HEPES buffer (50 mM, pH 7.4) and homogenized with an Ultraturax tissue grinder. The lysate was then centrifuged at 40,000 g for 20 minutes at 4° C. The resulting pellet was resuspended in 15 volumes of HEPES buffer (50 mM, pH 7.4). The membrane preparations were maintained in ice and used within two hours for radioligand binding assays. The protein concentrations were determined by the method of Lowry et al., 1951, using bovine serum albumin as standard.
(§3) The saturation studies were performed using [^3H] GR113808 at 9 different concentrations ranging from 0.01 to 3.5 nM. The tubes were incubated at 25° C. for 30 minutes. The reaction-was stopped by rapid filtration, under vacuum, through Whatman GF/B filter paper using the Brandel 48R cell harvester. The filters were presoaked in a solution of PEI (0.1%) to reduce the binding to the filters. The filters were then washed with an ice-cold buffer (50 mM Tris-HCl, pH 7.4) and placed in 4 ml of “ready safe” scintillation cocktail (Beckman, Fullerton, Calif.) overnight. The radioactivity was measured using a Beckman LS 6500 C liquid scintillation counter. The binding data were analysed by computer-assisted nonlinear regression analysis (Graph Pad Prism Program, Graph Pad Software, Inc., San Diego, Calif.).
(§4) The experiments correspond to the competition of various compounds for [^3H]GR113808 binding to membranes of transiently transfected COS-7 cells. […] The estimations of affinity are given as Ki values in nM, and are determined from IC50 values obtained by computer-assisted nonlinear curve analysis (GraphPad, Prism Software). The Ki values are representative of at least two determinations.

[2] = target: T2, receptor 5-HT4(a) (Homo sapiens, UniProt Q13639); assay: as above; details: 5-HT4(a), COS-7 membranes, 30 minutes at 25° C.; read-out: Kd, saturation analysis
T2 construct: The entire coding region of the cDNAs of 5-HT4(a), 5-HT4(b), 5-HT4(c) and 5-T4(d) was subcloned; expressed in transfected cells; host or cells: COS-7 cells, transient, pRC/CMV vector
Method: as §1, §2, §3, §4

[3] = target: T3, receptor 5-HT4(d) (Homo sapiens, UniProt Q13639); assay: [3H]GR113808 saturation binding, membranes of stably transfected CHO cells; parameters: The entire coding region of the cDNAs of 5-HT4(a), 5-HT4(b), 5-HT4(c) and 5-T4(d) was subcloned; expressed in transfected cells; pRC/CMV vector; cDNA amplified from human brain and ileum RNA; details: 30 minutes at 25° C., read-out: Kd, saturation analysis
Method: (§5) The entire coding region of the 5-HT4(c) and 5-HT4(d) cDNAs was subcloned into a mammalian expression vector pRC/CMV (Invitrogen, Carlsbad, Calif.). The CHO cells are stably transfected by electroporation (250 V, 960 μF) with the plasmid PRc/CMV, containing the clone h5-HT4(c) or h5-HT4(d), cleaved with the restriction enzyme Kpn1 (10 μg of plasmid for 10^7 cells). The cells are cultured in HAM-F12 medium supplemented with 10% of heat-inactivated foetal calf serum. […] Twelve days later, the clones are individualized and cultured in 12-well plates. Clone selection is carried out by studying the stimulation of the cAMP formed in the presence of 1 μM serotonin. […]
(§6) Each flask of cells intended for the radioligand binding assays was washed twice with a phosphate buffer (PBS). […] The protein concentrations were determined by the method of Lowry et al., 1951, using bovine serum albumin as standard.
(§7) The radioligand binding studies were carried out in 500 μl of buffer (50 mM HEPES, pH 7.4) [lacuna] […] The filters were then washed with an ice-cold buffer (50 mM Tris-HCl, pH 7.4) and placed in 4 ml of “ready safe” scintillation cocktail (Beckman, Fullerton, Calif.) overnight. The radioactivity was measured using a Beckman LS 6500 C liquid scintillation counter. […]

[4] = target: T4, receptor 5-HT4(c) (Homo sapiens, UniProt Q13639); assay: as above; parameters: The entire coding region of the cDNAs of 5-HT4(a), 5-HT4(b), 5-HT4(c) and 5-T4(d) was subcloned; expressed in transfected cells; pRC/CMV vector; cDNA amplified from human brain and ileum RNA; details: 30 minutes at 25° C., read-out: Kd, saturation analysis
Method: as §5, §6, §7

[5] = target: T3, receptor 5-HT4(d); assay: [3H]GR113808 radioligand binding, membranes of transiently transfected COS-7 cells; parameters: The entire coding region of the cDNAs of 5-HT4(a), 5-HT4(b), 5-HT4(c) and 5-T4(d) was subcloned; expressed in transfected cells; host or cells: COS-7 cells, transient, pRC/CMV vector; cDNA amplified from human brain and ileum RNA; details: 5-HT4(d), COS-7 membranes, 30 minutes at 25° C.; read-out: Kd, saturation analysis
Method: as §1, §2, §3, §4

[6] = target: T4, receptor 5-HT4(c); assay: as above; parameters: The entire coding region of the cDNAs of 5-HT4(a), 5-HT4(b), 5-HT4(c) and 5-T4(d) was subcloned; expressed in transfected cells; host or cells: COS-7 cells, transient, pRC/CMV vector; cDNA amplified from human brain and ileum RNA; details: 5-HT4(c), COS-7 membranes, 30 minutes at 25° C.; read-out: Kd, saturation analysis
Method: as §1, §2, §3, §4

T4 sequence (Q13639 1-380 isoform Q13639-4): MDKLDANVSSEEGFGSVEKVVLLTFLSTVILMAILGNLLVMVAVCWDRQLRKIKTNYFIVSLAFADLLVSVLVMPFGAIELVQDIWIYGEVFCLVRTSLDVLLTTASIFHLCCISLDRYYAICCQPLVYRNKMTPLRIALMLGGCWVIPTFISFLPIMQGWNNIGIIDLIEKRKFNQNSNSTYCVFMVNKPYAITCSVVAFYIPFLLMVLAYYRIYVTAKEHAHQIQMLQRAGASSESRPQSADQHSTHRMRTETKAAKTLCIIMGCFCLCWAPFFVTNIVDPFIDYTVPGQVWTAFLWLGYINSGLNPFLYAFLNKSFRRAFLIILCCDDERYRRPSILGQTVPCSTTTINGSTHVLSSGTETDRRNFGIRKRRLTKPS
T3 sequence (Q13639 1-360 isoform Q13639-3): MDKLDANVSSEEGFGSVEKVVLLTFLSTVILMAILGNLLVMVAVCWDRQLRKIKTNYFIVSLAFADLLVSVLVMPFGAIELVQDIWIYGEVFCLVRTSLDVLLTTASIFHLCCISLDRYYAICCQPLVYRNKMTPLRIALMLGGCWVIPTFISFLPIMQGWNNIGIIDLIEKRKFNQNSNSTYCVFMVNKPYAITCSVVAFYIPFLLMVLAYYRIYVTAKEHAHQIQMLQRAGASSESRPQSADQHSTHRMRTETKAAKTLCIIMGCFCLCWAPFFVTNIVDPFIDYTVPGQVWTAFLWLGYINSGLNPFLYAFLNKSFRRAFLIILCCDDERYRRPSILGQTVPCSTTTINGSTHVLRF
T1 sequence (Q13639 whole entry): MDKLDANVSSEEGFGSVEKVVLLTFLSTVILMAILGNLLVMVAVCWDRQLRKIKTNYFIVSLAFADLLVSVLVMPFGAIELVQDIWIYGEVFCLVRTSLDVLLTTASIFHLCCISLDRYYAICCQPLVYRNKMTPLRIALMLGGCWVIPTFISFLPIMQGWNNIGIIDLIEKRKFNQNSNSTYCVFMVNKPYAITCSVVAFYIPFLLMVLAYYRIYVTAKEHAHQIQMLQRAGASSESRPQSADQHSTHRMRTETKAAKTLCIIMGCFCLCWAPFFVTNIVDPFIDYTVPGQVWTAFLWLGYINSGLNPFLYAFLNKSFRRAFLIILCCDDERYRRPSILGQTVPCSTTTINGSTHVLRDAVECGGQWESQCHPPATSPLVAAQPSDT
T2 sequence (Q13639 1-387 isoform Q13639-2): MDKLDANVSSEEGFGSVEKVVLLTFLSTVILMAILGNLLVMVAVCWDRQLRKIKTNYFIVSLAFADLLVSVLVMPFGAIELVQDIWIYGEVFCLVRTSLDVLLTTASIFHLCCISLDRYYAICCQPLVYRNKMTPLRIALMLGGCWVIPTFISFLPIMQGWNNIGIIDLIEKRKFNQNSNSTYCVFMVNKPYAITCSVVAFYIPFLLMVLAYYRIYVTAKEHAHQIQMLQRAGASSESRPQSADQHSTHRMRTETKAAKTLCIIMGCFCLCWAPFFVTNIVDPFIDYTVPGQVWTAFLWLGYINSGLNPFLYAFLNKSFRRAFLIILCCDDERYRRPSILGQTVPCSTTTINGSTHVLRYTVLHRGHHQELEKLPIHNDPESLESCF

Cn1cc(C(=O)OCC2CCN(CCNS(C)(=O)=O)CC2)c2ccccc21 [[^3H]GR113808]
Kd [1]: 0.62 ± 0.05 nM | Kd [2]: 0.23 ± 0.06 nM | Kd [3]: 0.23 ± 0.03 nM | Kd [4]: 0.42 ± 0.04 nM | Kd [5]: 0.14 ± 0.05 nM | Kd [6]: 0.3 ± 0.08 nM
